The IC50 is the point on the concentration scale where inhibition reaches its midpoint. Higher therefore signals lower potency.

Results on one compound are retold here after publication PMC3551932, “STK295900, a Dual Inhibitor of Topoisomerase 1 and 2, Induces G2 Arrest in the Absence of DNA Damage” (PLoS ONE, 2013).

For assay [1], the system named is HeLa cells. Kind of assay: Cell growth inhibition assay, HeLa. The format is cell-based, human. Particulars: Homo sapiens, 96 h, growth up to 4 days. From the text: (§1) Human epitheloid cervical carcinoma HeLa cells, human breast adenocarcinoma MCF7 and MDA-MB-231cells, human hepatocellular carcinoma HepG2 cells, human colon adenocarcinoma HT-29 cells, and human colorectal carcinoma HCT-116 cells were purchased from ATCC® and maintained in DMEM medium. Human prostate carcinoma PC-3 cells (purchased from ATCC®), human gastric carcinoma SNU-484 and SNU-601(obtained from Korean Cell Line Bank (KCLB)), human leukemia K-562 and HL-60 cells (purchased from ATCC®), immortalized human prostate epithelial 267B1cells, and immortalized human embryonic lung fibroblast MRC5CV1 cells were maintained in RPMI 1640 medium whereas immortalized retinal pigment epithelial hTERT RPE-1 cells (purchased from ATCC®) were maintained in DMEM/F12 medium. All cell lines were cultured in media supplemented with 10% fetal bovine serum, 100 U/ml penicillin, and […] streptomycin at 37°C in a 5% CO2 incubator.
(§2) Cells were seeded at the appropriate amount (1–2×10^3 cells) in triplicate in 96-well plates for 24 h and then treated with various concentrations of STK295900. Cell growth was determined by using EZ-CyTox cell viability assay kit (Daeil Lab. Service, Seoul, Korea). Ten microliters of WST solution were added to the treated cells at 24, 48, 72, and 96 h. Cells were further incubated at 37°C for 2 h and the absorbance was measured at 450 nm.

For assay [2], the system named is MCF7 cells. The assay is described as follows: Cell growth inhibition assay, MCF7. The format is cell-based, human. The note with it: Homo sapiens, MCF7, 96 h, growth up to 4 days.
Excerpt: as §1, §2

Assay [3] deals with HT-29 cells. The assay is described as follows: Cell growth inhibition assay, HT-29. Particulars: Homo sapiens, HT-29, 96 h, growth up to 4 days. The format is cell-based, human.
Excerpt: as §1, §2

Assay [4] concerns HCT-116 cells. Kind of assay: Cell growth inhibition assay, HCT-116. The format is cell-based. The note with it: Homo sapiens, 96 h, Table 1, growth up to 4 days.
Excerpt: as §1, §2

Assay [5] relates to HL-60 cells. The assay is described as follows: Cell growth inhibition assay, HL-60. In kind it is cell-based. The note with it: Homo sapiens, 96 h; Table 1; HL-60, leukemia; growth up to 4 days.
Excerpt: as §1, §2

Assay [6] concerns K-562 cells. Kind of assay: Cell growth inhibition assay, K-562. The format is cell-based. The note with it: Homo sapiens, K562, 96 h; Table 1; K-562, leukemia; growth up to 4 days.
Excerpt: as §1, §2

Assay [7] deals with SNU-484 cells. Kind of assay: Cell growth inhibition assay, SNU-484. In kind it is cell-based. Particulars: Homo sapiens, 96 h; Table 1; SNU-484, gastric carcinoma; growth up to 4 days.
Excerpt: as §1, §2

The subject of assay [8] is 267B1 cells. Kind of assay: Cell growth inhibition assay, 267B1. The format is cell-based, human. The note with it: Homo sapiens, 96 h; Table 2 comparison; 267B1, non-cancer; growth up to 4 days.
Excerpt: as §1, §2

Assay [9] deals with MRC5CV1 cells. The assay is described as follows: Cell growth inhibition assay, MRC5CV1. In kind it is cell-based, human. The note with it: Homo sapiens, 96 h; Table 2 comparison; MRC5CV1, non-cancer; growth up to 4 days.
Excerpt: as §1, §2

Assay [10] deals with cancer (HeLa, MCF7, HepG2, and HT-29) and non-cancerous cell lines (hTERT RPE-1, 267B1, and MRC5CV1). The assay is described as follows: Cell growth inhibition assay, cancer and non-cancerous cell lines compared. The format is cell-based, human. The note with it: cancer (HeLa, MCF7, HepG2, HT-29) vs non-cancer (hTERT RPE-1, 267B1, MRC5CV1).
Excerpt: as §1, §2

The target in assay [11] is human topoisomerase 2α (Homo sapiens, UniProt P11388). The assay is described as follows: Supercoiled DNA relaxation assay for topoisomerase 2α. In kind it is biochemical. Particulars: pBR322, 37°C, 30 min. The method, then: After incubation, the reaction was terminated by addition of 2 µl of 10% SDS. The reaction mixtures were treated with 50 µg/ml proteinase K for 30 min at 37°C and then DNA was extracted with CIA (chloroform:isoamyl alcohol, 24∶1). Samples were resolved by electrophoresis on a 1% agarose gel. After staining the electrophoresed gel with ethidium bromide, DNA bands were visualized by UV light and photographed on Gel Doc XR.
(§3) Supercoiled DNA relaxation assay for (A) topoisomerase 1 (Top 1) and (B) topoisomerase 2 (Top 2). Supercoiled pBR322 plasmid DNA was incubated at 37°C for 30 min with Top 1 enzyme (A) or Top 2α (B) in the presence of various concentrations of indicated compounds. DNA samples were separated by electrophoresis on a 1% agarose gel, stained with ethidium bromide, and visualized by UV light. (−), supercoiled DNA alone; oc, open circular; sc, supercoiled. […] HeLa cells were pretreated with 10 µM of STK295900 for 30 min and then incubated with the indicated concentrations of camptothecin for 1 h. Treated cells were lysed and subjected to immunoblot analyses with antibody against γ-H2A.X. β-actin was used as a loading control. […] HeLa cells were pretreated with STK295900 at 10, 20, 30, or 50 µM or ICRF-193 at 10 µM for 30 min. […] Treated cells were then lysed and subjected to immunoblot analyses with antibody against γ-H2A.X. β-actin was used as a loading control.

The test system of assay [12] is HeLa cells. Kind of assay: Antagonistic effect on Top poison-induced DNA damage (γ-H2A.X immunoblot). The format is cell-based, human. The method, then:
Cells were lysed with cold RIPA buffer (50 mM Tris-HCl pH 8.0, 150 mM NaCl, 1% NP-40, 0.5% sodium deoxycholate, 0.1% SDS) containing freshly added protease inhibitor, phosphatase inhibitor (SIGMA), 1 mM DTT, and 1 mM Na3VO4 on ice for 1 h. Whole cell lysates were centrifuged at 15,000 rpm for 20 min and then the supernatant was transferred into a new tube. An appropriate amount of cell lysate was subjected to SDS-PAGE. Then the resolved proteins were transferred onto a PVDF membrane (Bio-Rad) for immunoblot analyses with specific antibodies. The proteins were detected using chemiluminescence solution (Thermo Scientific, Rockford, IL).
as §3
The lysates were subjected to immunoblot analyses with γ-H2A.X antibody.
(In western blotting, separated proteins are transferred to a membrane and probed.)

Assay [13] relates to DNA gyrase. The note with it: targeting DNA gyrase; cited from earlier work.

human topoisomerase 2α, sequence (P11388 whole entry): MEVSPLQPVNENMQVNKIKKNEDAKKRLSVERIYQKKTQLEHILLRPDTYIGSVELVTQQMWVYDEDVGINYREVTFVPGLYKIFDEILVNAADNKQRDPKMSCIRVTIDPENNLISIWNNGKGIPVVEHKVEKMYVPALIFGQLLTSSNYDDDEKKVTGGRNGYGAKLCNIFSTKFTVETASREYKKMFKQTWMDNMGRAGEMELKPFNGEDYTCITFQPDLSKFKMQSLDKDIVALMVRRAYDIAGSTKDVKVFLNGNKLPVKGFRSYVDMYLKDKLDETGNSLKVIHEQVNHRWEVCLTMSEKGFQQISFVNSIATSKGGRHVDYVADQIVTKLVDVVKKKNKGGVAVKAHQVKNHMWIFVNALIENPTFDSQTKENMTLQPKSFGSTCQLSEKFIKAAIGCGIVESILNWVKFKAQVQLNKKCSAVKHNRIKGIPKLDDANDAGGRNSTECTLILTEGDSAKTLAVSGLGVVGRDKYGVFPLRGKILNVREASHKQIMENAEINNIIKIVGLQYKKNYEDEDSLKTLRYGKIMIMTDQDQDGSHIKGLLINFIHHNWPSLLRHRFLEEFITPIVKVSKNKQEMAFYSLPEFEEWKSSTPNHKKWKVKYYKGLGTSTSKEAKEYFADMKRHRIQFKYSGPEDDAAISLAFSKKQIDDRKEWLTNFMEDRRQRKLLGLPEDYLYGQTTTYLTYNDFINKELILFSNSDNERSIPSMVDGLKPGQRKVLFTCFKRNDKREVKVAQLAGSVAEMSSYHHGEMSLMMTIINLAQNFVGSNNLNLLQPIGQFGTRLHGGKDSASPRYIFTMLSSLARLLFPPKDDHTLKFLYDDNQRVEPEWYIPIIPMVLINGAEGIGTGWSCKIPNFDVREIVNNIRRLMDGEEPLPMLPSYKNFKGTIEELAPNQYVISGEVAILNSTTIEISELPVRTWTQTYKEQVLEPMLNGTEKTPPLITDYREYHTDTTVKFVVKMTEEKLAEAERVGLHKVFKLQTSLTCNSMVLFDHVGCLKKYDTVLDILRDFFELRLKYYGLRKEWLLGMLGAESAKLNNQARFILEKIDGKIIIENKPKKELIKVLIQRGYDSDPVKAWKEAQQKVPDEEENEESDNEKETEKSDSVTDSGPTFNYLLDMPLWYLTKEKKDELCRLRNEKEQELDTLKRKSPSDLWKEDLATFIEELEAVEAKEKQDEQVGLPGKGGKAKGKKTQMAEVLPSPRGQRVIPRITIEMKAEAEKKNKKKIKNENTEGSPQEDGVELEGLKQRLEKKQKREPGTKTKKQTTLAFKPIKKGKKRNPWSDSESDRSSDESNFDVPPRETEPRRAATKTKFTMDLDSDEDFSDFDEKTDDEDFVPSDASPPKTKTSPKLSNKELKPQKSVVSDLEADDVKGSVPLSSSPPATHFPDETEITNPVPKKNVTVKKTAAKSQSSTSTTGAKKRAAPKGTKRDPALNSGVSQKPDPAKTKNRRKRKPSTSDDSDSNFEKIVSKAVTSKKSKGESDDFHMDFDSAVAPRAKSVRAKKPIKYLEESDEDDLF

In the case of `Nc1ccc(-c2nc3ccc(-c4ccc5nc(-c6ccc(N)cc6)[nH]c5c4)cc3[nH]2)cc1` [STK295900, 4,4′-(3H,3′H-5,5′-bibenzimidazole-2,2′-diyl)dianiline], the 50% inhibitory concentration (IC50) in [1] (Table 1, cervical carcinoma) stood at 520 nM; in assay [1] (Table 2 comparison) it was 640 nM; in assay [2] (Table 1, MCF7, breast adenocarcinoma) it was 60 nM; in assay [2] (Table 2 comparison, MCF7), 40 nM; in assay [3] (Table 1, HT-29, colon adenocarcinoma) it was 270 nM; in [3] (Table 2 comparison, HT-29) it was 210 nM. For the same compound, the IC50 in [4] worked out at 2830 nM; in assay [5], 500 nM; in [6], 1380 nM; in [7], 1210 nM; in assay [8] it was 1610 nM; in assay [9], 950 nM. For the same compound, in assay [10], the “selectivity of toxicity, cancer versus non-cancer cells” value is listed as “selective toxicity against cancer cells”. Further, in [11], the “Top 2α-mediated DNA relaxation” value is recorded as “inhibited Top 2α-mediated DNA relaxation”. Moreover, in assay [12] (pretreated up to 50 µM for 30 min, then 10 µM etoposide 1 h), the “effect of pretreatment on etoposide-induced γ-H2A.X” value was “could not prevent”. The “effect of pretreatment on camptothecin-induced γ-H2A.X” value in assay [12] (pretreated with 10 µM for 30 min, then camptothecin 1 h) was “dramatically reduced”. Besides, in assay [13], the anti-staphylococcal activity entry is recorded as “potent anti-staphylococcal agent”.
